Measured values as given in ChEMBL document CHEMBL1138993, “Thyroid receptor ligands. Part 5: novel bicyclic agonist ligands selective for the thyroid hormone receptor beta” (Bioorg Med Chem Lett, 2006).

How the values were obtained:
[1] = target: T1, Thyroid hormone receptor alpha (Homo sapiens, UniProt P10827)
T1 sequence (P10827 whole entry): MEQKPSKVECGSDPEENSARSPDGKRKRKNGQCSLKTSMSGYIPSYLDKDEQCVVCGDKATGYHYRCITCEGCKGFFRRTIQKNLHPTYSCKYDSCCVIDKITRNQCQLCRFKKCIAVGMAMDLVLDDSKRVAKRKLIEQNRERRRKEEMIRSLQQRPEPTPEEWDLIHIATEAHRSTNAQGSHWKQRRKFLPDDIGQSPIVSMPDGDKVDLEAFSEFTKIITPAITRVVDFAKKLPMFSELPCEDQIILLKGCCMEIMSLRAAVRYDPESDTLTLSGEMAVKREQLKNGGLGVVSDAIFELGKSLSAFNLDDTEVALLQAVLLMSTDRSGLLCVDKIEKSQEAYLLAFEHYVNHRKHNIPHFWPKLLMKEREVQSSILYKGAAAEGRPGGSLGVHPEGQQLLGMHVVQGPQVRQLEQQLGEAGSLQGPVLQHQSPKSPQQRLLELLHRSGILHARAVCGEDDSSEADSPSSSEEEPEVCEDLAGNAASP
Description: Efficacy against TRAF-alpha-1 reporter cells

[2] = target: T1, Thyroid hormone receptor alpha; remark: listed apart in the source
Description: Inhibition of human TR-alpha-1 by radioligand binding assay

[3] = target: T2, Thyroid hormone receptor beta (Homo sapiens, UniProt P10828)
T2 sequence (P10828 whole entry): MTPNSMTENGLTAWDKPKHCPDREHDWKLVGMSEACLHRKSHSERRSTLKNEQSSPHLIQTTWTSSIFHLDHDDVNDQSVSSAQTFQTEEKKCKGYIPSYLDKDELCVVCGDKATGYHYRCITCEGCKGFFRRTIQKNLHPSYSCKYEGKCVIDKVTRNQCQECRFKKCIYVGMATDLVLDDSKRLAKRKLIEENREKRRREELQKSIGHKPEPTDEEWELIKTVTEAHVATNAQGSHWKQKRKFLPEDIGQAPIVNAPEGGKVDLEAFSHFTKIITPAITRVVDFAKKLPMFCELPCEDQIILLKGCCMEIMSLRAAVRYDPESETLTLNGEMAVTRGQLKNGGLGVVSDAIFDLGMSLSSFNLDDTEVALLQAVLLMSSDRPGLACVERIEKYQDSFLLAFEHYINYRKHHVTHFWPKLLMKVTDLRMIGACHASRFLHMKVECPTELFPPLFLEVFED
Description: Efficacy against TRAF-beta-1 reporter cells

[4] = target: T2, Thyroid hormone receptor beta; remark: listed apart in the source
Description: Inhibition of human TR-beta-1 by radioligand binding assay

| SMILES | EC50 [1] | IC50 [2] | EC50 [3] | IC50 [4] |
| --- | --- | --- | --- | --- |
| Cc1cc2nc(C(=O)O)ccc2c(C)c1Oc1ccc(O)c(C(C)C)c1 | 83 nM | 200 nM | 49 nM | 15 nM |
| CC(C)c1cc(Oc2c(Cl)cc3[nH]c(C(=O)O)cc3c2Cl)ccc1O | 10 nM | 1.4 nM |  |  |
| CC(C)c1cc(Oc2c(Br)cc3c(c2Br)CC(C(=O)O)C3)ccc1O (stereo not given) | 4.1 nM | 38 nM | 4.3 nM | 8.5 nM |
| CC(C)c1cc(Oc2c(Cl)cc3[nH]c(C(=O)O)cc(=O)c3c2Cl)ccc1O |  | 3500 nM |  | 870 nM |
| Cc1cc2[nH]c(C(=O)O)cc(=O)c2c(C)c1Oc1ccc(O)c(C(C)C)c1 |  | 620 nM |  | 240 nM |
| CC(C)c1cc(Oc2c(Br)cc3nc(C(=O)O)cc(O)c3c2Br)ccc1O |  | 250 nM |  | 51 nM |
| CC(C)c1cc(Oc2c(Br)cc3[nH]c(C(=O)O)cc3c2Br)ccc1O | 10 nM | 2.5 nM | 4.2 nM | 0.28 nM |
